PMC7985297 (Communications Biology, 2021)
Several values for one entry are separate records, joined by “and”; a condition that tells them apart may be missing. Equal values may be shown once.

Legend:
full-length AR = molecular target: T1, full-length AR (Homo sapiens, UniProt P10275, T878A); test: PSA(6.1 kb)-luciferase AR-driven reporter assay in LNCaP cells; assay type: cell-based; details: for PSA(6.1 kb)-luciferase activity normalized to fold-induction by R1881 (=100): without or with ATRA 5uM; for fractional response (Fig. 5h): monotherapy or with 5 µM ATRA
T1 construct: Transcriptional activity of full-length AR was assessed in LNCaP cells; endogenous in cells; host or cells: LNCaP
T1 sequence (P10275 1-920 T878A): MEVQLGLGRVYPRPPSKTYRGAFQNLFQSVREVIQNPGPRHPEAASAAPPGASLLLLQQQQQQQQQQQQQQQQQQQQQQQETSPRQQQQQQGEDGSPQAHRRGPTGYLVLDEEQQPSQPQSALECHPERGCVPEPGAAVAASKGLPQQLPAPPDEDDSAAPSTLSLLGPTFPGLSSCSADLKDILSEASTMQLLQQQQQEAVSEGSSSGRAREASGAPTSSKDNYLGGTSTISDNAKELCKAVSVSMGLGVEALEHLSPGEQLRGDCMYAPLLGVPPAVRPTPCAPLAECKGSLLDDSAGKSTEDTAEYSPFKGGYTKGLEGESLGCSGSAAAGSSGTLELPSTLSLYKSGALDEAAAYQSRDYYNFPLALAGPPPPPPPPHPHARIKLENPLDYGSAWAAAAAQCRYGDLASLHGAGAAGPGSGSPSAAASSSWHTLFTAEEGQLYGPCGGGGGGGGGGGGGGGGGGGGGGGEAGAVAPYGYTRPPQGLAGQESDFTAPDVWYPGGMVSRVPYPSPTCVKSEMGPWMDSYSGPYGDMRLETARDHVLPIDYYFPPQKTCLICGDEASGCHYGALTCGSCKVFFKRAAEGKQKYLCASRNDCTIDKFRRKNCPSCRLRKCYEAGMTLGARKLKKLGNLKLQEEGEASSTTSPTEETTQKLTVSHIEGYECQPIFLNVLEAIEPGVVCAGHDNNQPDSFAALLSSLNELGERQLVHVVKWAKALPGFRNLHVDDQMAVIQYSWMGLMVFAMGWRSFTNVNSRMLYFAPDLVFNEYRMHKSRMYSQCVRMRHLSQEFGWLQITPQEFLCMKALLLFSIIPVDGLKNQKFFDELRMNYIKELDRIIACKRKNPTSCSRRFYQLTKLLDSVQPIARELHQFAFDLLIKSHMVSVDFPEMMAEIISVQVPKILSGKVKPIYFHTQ

[1] = system: Ki-67, PSA and AR in LN95-D3 xenografts; test: Immunohistochemistry of LN95-D3 xenografts (Ki-67, PSA, AR); assay type: in vivo, mice
Source text: Fig. 8 Immunohistochemistry of LN95-D3 xenografts. a Representative images showing the histomorphology and expression of Ki-67, PSA, and AR from harvested tumors. Scale bars represent 100 µm. Statistical analysis for b the percentage of Ki-67-positive tumor cells and for the expression of c PSA and d AR. Error bars represent the mean ± s.d.
Sections were cut from formalin-fixed, paraffin-embedded tumor tissue at a thickness of 5 µm, deparaffinized in xylene, and then rehydrated in alcohols and distilled water. Endogenous peroxidase was blocked by incubating with a 3% hydrogen peroxide solution for 5 min. […] PSA was detected using a monoclonal mouse anti-human PSA antibody concentrate (ER-PR8; Dako). A negative control without the primary antibody was included for each sample on the same slide. Antigen was detected with 3,3-diaminobenzidine (DAB) and hematoxylin was used for counterstaining. Images were captured on an Axio Imager M2 microscope (Zeiss) at ×200 magnification. The percentage of Ki-67-positive cells was determined with ImageJ using the Cell Counter plugin. At least 1000 cells were scored from three images of representative tumors for each treatment group. The intensity of DAB staining for PSA was quantified by ImageJ using color deconvolution and measuring the mean gray value for the DAB image, where optical density = log(max intensity/mean intensity), and a max intensity of 255 for an 8-bit image.

[2] = system: Pin1, Cyclin D1, Skp2 and AR in LN95-D3 tumors; test: Western blot of harvested LN95-D3 xenograft tumors (Pin1, Cyclin D1, Skp2, AR); assay type: in vivo, mice; details: LN95-D3 tumors at end of study
Description: Scale bars represent 5 mm (f) western blot analysis showing the expression of Pin1, Cyclin D1, Skp2, and AR from representative tumors. Quantification of the data is shown for g Pin1 and h Skp2, where the error bars represent the mean ± s.e.m.
All experiments involving animals conform to the relevant regulatory and ethical standards and were approved by the University of British Columbia Animal Care Committee (A18-0077). Metacam (1 mg/kg, 0.05 mL/10 g of body weight) was administered subcutaneously prior to any surgery. Animals were anesthetized with isoflurane and euthanized by CO2. Six–eight-week-old male (NOD-scid IL2Rgamma^null) mice were maintained in the Animal Care Facility at the British Columbia Cancer Research Centre. Mice were castrated 2 weeks before they were subcutaneously inoculated in the right flank with two million LN95-D3 cells in a 1:1 volume of matrigel (Corning Discovery Labware, Corning, NY). […] Tumors were excised 1 day after the last dose and prepared for western blot analysis and immunohistochemistry.

LN95-D3 xenografts = test: Growth of LN95-D3 CRPC xenografts in castrated male NSG mice; assay type: in vivo; details: castrated mice, ATRA 5 mg 21-day release pellet, EPI-7170 30 mg/kg daily oral, relative to vehicle/placebo-control
[3] = system: androgen-regulated genes (KLK3/PSA, TMPRSS2, NKX3.1, FKBP5); test: Quantitative real-time PCR of androgen-regulated genes in LNCaP cells; assay type: cell-based, human; details: enzalutamide 5 μM, juglone 20 μM, R1881 1 nM, 48 hours
LN95-D3 cells = test: Cell cycle analysis by flow cytometry, LN95-D3 subline; assay type: cell-based, human; details: LN95-D3, absence of androgen, 48 h
[4] = molecular target: T2, recombinant human Pin1 protein (Homo sapiens, UniProt Q13526); test: Pin1 inhibition assay (fluorometric isomerase activity); assay type: biochemical; details: compounds 0–50 µM, 500 ng Pin1, Supplementary Fig. 2
T2 construct: purchased Abcam ab51230
T2 sequence (Q13526 whole entry): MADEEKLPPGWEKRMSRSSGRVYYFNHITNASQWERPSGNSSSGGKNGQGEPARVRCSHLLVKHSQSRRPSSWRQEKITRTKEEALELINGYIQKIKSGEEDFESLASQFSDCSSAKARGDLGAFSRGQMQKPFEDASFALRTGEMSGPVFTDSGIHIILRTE
Description: The effect of inhibitors on Pin1 isomerase activity was evaluated using a fluorometric Pin1 Assay Kit (AnaSpec, Fremont, California), according to the manufacturer’s protocol. […] Fluorescence intensity was measured with excitation wavelength at 490 nm and emission wavelength at 520 nm on an Infinite M1000 plate reader (Tecan, Männedorf, Switzerland) at 37 °C. Measurements were recorded every 5 min for up to 1 h.
Fluorescent polarization-based assay
the isomerase activity of Pin1. Each reaction contains 500 ng of
recombinant human Pin1 protein incubated with an inhibitor and a
fluorogenic substrate at 37°C. The uncatalyzed reaction represents
the intrinsic cis/trans isomerization of the substrate without Pin1
separate experiments with the correlation performed in duplicate
wells. RFU, relative fluorescent units.
(1 picture or pasted object on this page, not shown here)

[5] = system: Pin1 and cell cycle proteins in LN95 cells; test: Western blot of Pin1 and cell cycle proteins in LN95 cells; details: for CyclinA2 protein level (Fig. 6a) / CyclinB1 protein level (Fig. 6a) / CyclinD1 protein level (Fig. 6a) / Pin1 protein level (Fig. 6a) / p21 protein level (Fig. 6a) / p27 protein level (Fig. 6a): relative to 0 μM = 1, replicate experiments by date
Description: Data shown are the means ± s.e.m. from 3–4 independent experiments. Statistical significance was determined by ANOVA using the Dunnett’s multiple comparisons test. *P < 0.05, **P < 0.01, ***P < 0.001.
For western blot analyses, membranes were blocked with 5% non-fat milk in phosphate-buffered saline containing 0.1% Tween-20 (PBS-T) and then incubated overnight at 4 °C with primary antibody (1:200–5000) in PBS-T containing 5% non-fat milk or 2% BSA. After incubation with the primary antibody, the membrane was washed three times with TBS-T, incubated with a horseradish peroxidase-conjugated antibody secondary antibody (1:5000–10,000) for 1–2 h at room temperature, and washed three times with PBS-T and two more times with PBS before chemiluminescence was detected with ECL Prime Reagent (GE Healthcare Life Science, Mississauga, ON). Western blot images were captured using the ChemiDoc MP Imaging System (Bio-Rad Laboratories, Hercules, CA) and quantified using ImageJ software.

CC(C)(c1ccc(OC[C@H](O)CNS(C)(=O)=O)cc1)c1cc(Cl)c(OC[C@H](O)CCl)c(Cl)c1 [EPI-7170]
inhibition of reporter activity at highest concentration (full-length AR; 4 µM of EPI-7170): ~ 98% | mean combination index (CI) with ATRA, PSA(6.1 kb)-luciferase (full-length AR; ATRA 5 μM, Bliss independence model, highest concentrations excluded): 0.91 | PSA(6.1 kb)-luciferase activity normalized to fold-induction by R1881 (=100) (full-length AR; EPI-7170 0.2 μM): 77.0788 and 79.4022 and 93.7923 and 73.47 | PSA(6.1 kb)-luciferase activity normalized to fold-induction by R1881 (=100) (full-length AR; EPI-7170 0.5 μM): 56.3224 and 79.2412 and 61.2392 and 64.29 | fractional response (Fig. 5h) (full-length AR; EPI-7170 2 μM): 0.8636 and 0.6689 and 0.7916 and 0.8858 | fractional response (Fig. 5h) (full-length AR; EPI-7170 4 μM): 0.9949 and 0.9737 and 0.993 and 0.9732 | IC50 (full-length AR; LNCaP, androgen-induced (R1881), 24 h, without ATRA, read-out: IC50 for PSA(6.1 kb) luciferase, monotherapy): 740 ± 1120 nM | effect on number of Ki-67-positive tumor cells ([1]; LN95-D3 xenografts): decreased the number of Ki-67-positive tumor cells in xenografts | levels of AR protein in xenografts (IHC) ([1]; LN95-D3 xenografts): similar | expression of AR, DAB staining (Fig. 8d) ([1]; LN95-D3 xenografts, ATRA 5 mg pellet, EPI-7170 30 mg/kg/d, listed as EPI placebo): 0.086 and 0.114 and 0.139 and 0.128 and 0.109 and 0.1 and 0.132 and 0.137 | percentage of Ki-67-positive tumor cells (Fig. 8b) ([1]; LN95-D3 xenografts, ATRA 5 mg pellet, EPI-7170 30 mg/kg/d, one value per tumor, listed as EPI placebo): 19.68% and 14.7% and 15.02% | effect on PSA expression in xenografts (IHC) ([1]; compared to the control): decreased | tumor levels of Skp2 [2]: reduced | tumor growth after 21 days of treatment (LN95-D3 xenografts): significantly reduced

CNC(=O)c1ccc(N2C(=S)N(c3ccc(C#N)c(C(F)(F)F)c3)C(=O)C2(C)C)cc1F [enzalutamide]
effect on androgen-induced FKBP5 transcript [3]: efficiently blocked | effect on cell cycle distribution (LN95-D3 cells): had no effect on the cell cycle distribution

CC1=C(/C=C/C(C)=C/C=C/C(C)=C\C(=O)O)C(C)(C)CCC1 [13cisRA, 13-cis-retinoic acid]
effect on isomerase activity of Pin1 [4]: did not inhibit the isomerase activity of Pin1 | CyclinA2 protein level (Fig. 6a) ([5]; 1 μM): 1.4 and 0.72 and 1.11 | CyclinB1 protein level (Fig. 6a) ([5]; 1 μM): 1.01 and 0.65 and 1.18 | CyclinD1 protein level (Fig. 6a) ([5]; 1 μM): 0.66 and 0.89 and 1.34 and 0.47 | Pin1 protein level (Fig. 6a) ([5]; 1 μM): 1.03 and 1.11 and 1.06 and 0.77 | p21 protein level (Fig. 6a) ([5]; 1 μM): 1.11 and 0.58 and 0.74 | p27 protein level (Fig. 6a) ([5]; 1 μM): 1.11 and 0.36 and 0.65 | CyclinA2 protein level (Fig. 6a) ([5]; 5 μM): 1.68 and 0.83 and 0.8 | CyclinB1 protein level (Fig. 6a) ([5]; 5 μM): 1.11 and 0.76 and 0.82 | CyclinD1 protein level (Fig. 6a) ([5]; 5 μM): 0.7 and 1.29 and 1.73 and 0.85 | Pin1 protein level (Fig. 6a) ([5]; 5 μM): 0.96 and 1.44 (2×) and 0.77 | p21 protein level (Fig. 6a) ([5]; 5 μM): 0.92 and 0.24 and 0.67 | p27 protein level (Fig. 6a) ([5]; 5 μM): 0.91 and 0.32 and 0.6 | CyclinA2 protein level (Fig. 6a) ([5]; 10 μM): 1.29 and 0.49 and 1.45 | CyclinB1 protein level (Fig. 6a) ([5]; 10 μM): 1.06 and 0.77 and 1.15 | CyclinD1 protein level (Fig. 6a) ([5]; 10 μM): 0.54 and 1.01 and 0.27 and 0.84 | Pin1 protein level (Fig. 6a) ([5]; 10 μM): 0.95 and 0.71 and 1.33 and 1.23 | p21 protein level (Fig. 6a) ([5]; 10 μM): 0.89 and 0.39 and 1.12 | p27 protein level (Fig. 6a) ([5]; 10 μM): 1.06 and 0.44 and 1.1 | effect on cellular Pin1 protein levels ([5]; LN95, 0–10 µM): did not impact the cellular levels of Pin1
